Experimental data published in article PMC9775177, “NLRP3-Inflammasome Inhibition with IZD334 Does Not Reduce Cardiac Damage in a Pig Model of Myocardial Infarction” (Biomedicines, 2022).
Where two headings read alike, the source gives them in different places.

Legend:
[1] = test system: pig model of myocardial infarction; assay: In vivo MI study: serological and histological read-outs; parameters: species or system pigs; details: 1, 3, 10 mg/kg groups
Description: Circulating leukocyte numbers at different time points after reperfusion were measured by whole-blood analysis using an automated hematological cell-counter (Cell-Dyn Sapphire, Abbott, Santa Clara, CA, USA). Plasma samples were obtained by whole-blood centrifugation at 1850× g and were immediately stored at −80 °C. C-reactive protein (CRP) levels were measured using solid phase DuoSet sandwich ELISA (DY1707, R&D Systems, Minneapolis, MN, USA) according to the manufacturer’s protocol. Troponin I levels were measured using a clinical chemistry analyzer (AU5811, Beckman Coulter, Woerden, The Netherlands). Histological analysis of collagen, myocardial immune cells, neutrophils, and monocyte infiltration is described in the Appendix A.
Infarcted and border zoned myocardial tissues were collected, and protein was isolated using a Roche protein isolation kit (cOmplete™ Lysis-M EDTA-free, Roche, Basel, Switzerland). IL-1β protein was measured with a Luminex Immunoassay specific for pig IL-1β (ProcartaPlex Pig IL-1β simplex Cat# EXP01A-66048-901 Invitrogen, Thermo Fisher Scientific, MA, USA) and corrected for total protein. For further histological analysis, infarcted and BZ myocardial tissue was processed, paraffin-imbedded, and cut into 5 µm sections after being conserved in 4% paraformaldehyde for 7 days. Cell nuclei were stained using hematoxylin, and area of cell infiltration was counted for each pig in 5 regions close to fibrotic areas in the infarct zone using Olympus CellSens software. Collagen was visualized using Picosirus Red staining (Abcam). The percentage of collagen was quantified using ImageJ software (1.47v).
Neutrophil infiltration in myocardial tissue was quantified in paraffin-embedded histological biopsies that were conserved in 4% formaldehyde for at least 7 days with a monoclonal mouse antibody against porcine neutrophils (Clone PM1, BMA Biomedicals, Augst, Switzerland) for 60 min and secondary incubation with Brightvision Poly-AP-anti-mouse (ImmunoLogic, Duiven, The Netherlands) for 30 min followed by development with liquid permanent red.
Monocyte infiltration was quantified in histological slides of myocardial tissue (paraffin and fresh frozen slides, respectively) using a monoclonal mouse anti-pig antibody against CD107a (Clone JM2E5, Bio-Rad, Kidlington, UK) or a mouse monoclonal antibody against CD14 (Ab23919, Abcam, Cambridge, UK); 60 min of incubation was followed by Brightvision Poly-AP-anti-mouse (ImmunoLogic, Duiven, The Netherlands) for 30 min and development with liquid permanent red.

[2] = IZD334 plasma concentrations in pigs subjected to MI; type: in vivo
Description: Oral treatment was continued for six days. […] Animals were sacrificed by exsanguination under anesthesia.
In vivo IZD334 concentrations were measured in plasma samples using mass-spectrometry. IZD334 content was quantified using positive ionization mode and multiple reaction monitoring on a Sciex API 5500 Mass spectrometer (MRM transition: 392.0 > 176.1).

[3] = test system: pig model of myocardial infarction; details: for 0 Min HR (bpm) / 30 Min MAP (mmHg) / 60 Min HR (bpm) / 90 Min MAP (mmHg) / 120 Min HR (bpm) / 150 Min MAP (mmHg): time after induction of MI
Description: All animal experiments and analyses were performed in a blinded, randomized fashion. […] Fifteen minutes before reperfusion, pigs were randomly assigned to IV treatment with either placebo (40 mL PBS) or a 10 mg/kg IZD334 loading dose (dissolved in 40 mL PBS) infusion for 30 min. After the first dose of IZD334, pigs were randomly assigned to three oral treatment regimens (1 mg/kg, 3 mg/kg, and 10 mg/kg). Dosing was based on in vivo pharmacokinetic findings in healthy pigs. The control (PBS) group received an oral placebo. Oral treatment was continued for six days. All pigs underwent transthoracic and three-dimensional transesophageal echocardiography before induction of ischemia and after 7 days. Furthermore, on day 7, cardiac magnetic resonance (CMR) imaging was performed. Subsequently, the LAD was occluded at the exact same site as during infarct induction. After verification of complete vessel occlusion, Evans Blue (E2129, Sigma-Aldrich, St. Louis, MO, USA) solution was infused in the left and right coronary arteries in order to assess the area at risk (AAR). Animals were sacrificed by exsanguination under anesthesia. […] Each slice was photographed at the basal and apical side with a ruler and analyzed with ImageJ software (NIH, Bethesda, MD, USA).

[4] = infarct tissue, 7 days after MI
[5] = myocardial tissue, 7 days after MI

SMILES: CCN1CCC(S(=O)(=O)[N-]C(=O)Nc2c3c(cc4c2CCC4)CCC3)CC1.[K+] [IZD334]
- CRP levels versus placebo ([1]; any time point during 7-day follow-up): No significant difference
- Systemic troponin I levels versus placebo ([1]; 7-day follow-up): trends were similar between the treatment groups
- Total leukocyte numbers versus placebo ([1]; circulating, 7-day follow-up): did not differ between groups
- neutrophil counts versus placebo ([1]; circulating, 7-day follow-up): did not differ between groups
- Intra-myocardial IL-1β levels versus placebo ([1]; infarct and border zone, 7 days after MI): without any difference among treatment arms
- collagen formation (histology) versus placebo [1, 4]: no differences between the groups
- total myocardial immune cell infiltration (histology) versus placebo [1, 4]: no differences between the groups
- monocyte infiltration (histology) versus placebo [1, 5]: no differences between the groups
- neutrophil infiltration (histology) versus placebo [1, 5]: no differences between the groups
- Concentration (ng/mL) Mean ([2]; 1 mg/kg group (10 mg/kg IV loading dose), Reperfusion + 4 h, n = 6): 13,192 ng/mL
- Concentration (ng/mL) Mean ([2]; 1 mg/kg oral once daily group, Day 1, n = 6): 1434 ng/mL
- Concentration (ng/mL) Mean ([2]; 1 mg/kg oral once daily group, Day 2, n = 6): 795 ng/mL
- Concentration (ng/mL) Mean ([2]; 1 mg/kg oral once daily group, Day 3, n = 6): 555 ng/mL
- Concentration (ng/mL) Mean ([2]; 1 mg/kg oral once daily group, Day 7, n = 6): 44 ng/mL
- Concentration (ng/mL) Mean ([2]; 3 mg/kg group (10 mg/kg IV loading dose), Reperfusion + 4 h, n = 7): 11,992 ng/mL
- Concentration (ng/mL) Mean ([2]; 3 mg/kg oral once daily group, Day 1, n = 7): 2090 ng/mL
- Concentration (ng/mL) Mean ([2]; 3 mg/kg oral once daily group, Day 2, n = 7): 1501 ng/mL
- Concentration (ng/mL) Mean ([2]; 3 mg/kg oral once daily group, Day 3, n = 7): 1190 ng/mL
- Concentration (ng/mL) Mean ([2]; 3 mg/kg oral once daily group, Day 7, n = 7): 120 ng/mL
- Concentration (ng/mL) Mean ([2]; 10 mg/kg group (10 mg/kg IV loading dose), Reperfusion + 4, n = 7): 12,312 ng/mL
- Concentration (ng/mL) Mean ([2]; 10 mg/kg oral once daily group, Day 1, n = 7): 4522 ng/mL
- Concentration (ng/mL) Mean ([2]; 10 mg/kg oral once daily group, Day 2, n = 7): 4213 ng/mL
- Concentration (ng/mL) Mean ([2]; 10 mg/kg oral once daily group, Day 3, n = 7): 3887 ng/mL
- Concentration (ng/mL) Mean ([2]; 10 mg/kg oral once daily group, Day 7, n = 7): 233 ng/mL
- 0 Min HR (bpm) ([3]; 1 mg/kg group, n = 6): 70 ± 12 bpm
- 30 Min MAP (mmHg) ([3]; 1 mg/kg group, n = 6): 85 ± 7 mmHg
- 60 Min HR (bpm) ([3]; 1 mg/kg group, n = 6): 68 ± 9 bpm
- 90 Min MAP (mmHg) ([3]; 1 mg/kg group, n = 6): 71 ± 12 mmHg
- 120 Min HR (bpm) ([3]; 1 mg/kg group, n = 6): 67 ± 8 bpm
- 150 Min MAP (mmHg) ([3]; 1 mg/kg group, n = 6): 79 ± 11 mmHg
- 0 Min HR (bpm) ([3]; 3 mg/kg group, n = 7): 74 ± 4 bpm
- 30 Min MAP (mmHg) ([3]; 3 mg/kg group, n = 7): 74 ± 13 mmHg
- 60 Min HR (bpm) ([3]; 3 mg/kg group, n = 7): 72 ± 11 bpm
- 90 Min MAP (mmHg) ([3]; 3 mg/kg group, n = 7): 58 ± 20 mmHg
- 120 Min HR (bpm) ([3]; 3 mg/kg group, n = 7): 61 ± 7 bpm
- 150 Min MAP (mmHg) ([3]; 3 mg/kg group, n = 7): 70 ± 23 mmHg
- 0 Min HR (bpm) ([3]; 10 mg/kg group, n = 7): 73 ± 11 bpm
- 30 Min MAP (mmHg) ([3]; 10 mg/kg group, n = 7): 72 ± 12 mmHg
- 60 Min HR (bpm) ([3]; 10 mg/kg group, n = 7): 70 ± 11 bpm
- 90 Min MAP (mmHg) ([3]; 10 mg/kg group, n = 7): 56 ± 19 mmHg
- 120 Min HR (bpm) ([3]; 10 mg/kg group, n = 7): 62 ± 7 bpm
- 150 Min MAP (mmHg) ([3]; 10 mg/kg group, n = 7): 62 ± 15 mmHg
- Heart rate and mean arterial blood pressure versus placebo ([3]; first 2.5 h after induction of MI and subsequent compound administration, all dose groups): similar
- pigs that died one day after infarct induction ([3]; low-dose (1 mg/kg) group, presumably due to late VF, also one animal in the placebo group): one animal
